Test results from US20250263391A1, “CRYSTALLINE FORM OF TEGAVIVINT, METHOD OF PREPARATION, AND USE THEREOF” (Iterion Therapeutics, Inc., priority 2020, published 2025).
“Also recorded” adds a separate entry of the source.

Tests used:
Assay type in all cases: physicochemical
[1] = Ball milling of Form I and Form IV: particle size (PSD)
Description: (§1) Therefore, ball milling of Form I and Form IV was performed to evaluate the form stability and particle size growth. The detailed procedure of ball milling was as follows. • 1. Suspend Form I and Form IV sample in 1% Poloxamer 188 water solution (50 mg/mL), separately. • 2. Add ˜12 mL suspension into a 50-mL tube which contained milling beads (the volume of milling beads is around 30 mL). After 12 mL suspension was added, the liquid surface just covered the beads. • 3. Roll the 50-mL tube (containing beads and suspension) at 5° C., RT and 60° C. with 30 rpm. • 4. Sample ˜0.8 mL suspension at 1, 2, 4, 24 h using 1-mL syringe. • 5. Test XRPD, PSD and PLM for the suspension.

[2] = Ball milling of Form I and Form IV: form stability by XRPD; settings: for Form: ball milling in 1% Poloxamer 188 water solution (50 mg/mL)
Description: as §1
For XRPD analysis, PANalytical X'Pert^3 X-ray powder diffractometer was used.

[3] = Slurry competition of Form I, III, IV and V at high water activity at RT (XRPD of wet cake); settings: mixture of Form I
Description: The detailed procedure was as follows: • 1) Prepare saturated solution with Form I sample (803759-01-A) in three solvent systems. • 2) Add about 10 mg of each form into 1 mL corresponding saturated solution. • 3) Slurry and check the XRPD of the wet cake after one day and six days.

[4] = Storage of milled Form I aqueous suspension; settings: milled to a very small particle size
Description: as §1

[5] = Form III samples after drying (XRPD)
[6] = VT-XRPD of Form IV and exposure to ambient conditions
Description: 2) After heating to 75 and 120° C., pure Form VI was observed. […] Thus, Form IV is believed to be a hydrate. For XRPD analysis, PANalytical X'Pert^3 X-ray powder diffractometer was used.

[7] = Dynamic Vapor Sorption (DVS); settings: 25° C./80% RH
Description: DVS was measured via a SMS (Surface Measurement Systems) DVS Intrinsic. The relative humidity at 25° C. were calibrated against deliquescence point of LiCl, Mg(NO3)2 and KCl.

[8] = Ball milling of Form I and Form IV: aggregation (PLM); settings: after 24 h
Description: as §1
PLM images were captured using Axio Scope A1 microscope from Carl Zeiss German.

In the case of `CC1CC(C)CN(S(=O)(=O)c2ccc3c(c2)C(=NO)c2cc(S(=O)(=O)N4CC(C)CC(C)C4)ccc2C3=NO)C1` (stereo not shown) [Form I, (9E,10E)-2,7-bis((3,5-dimethylpiperidin-1-yl)sulfonyl)anthracene-9,10-dione dioxime], the “D 90” value ([1]; 5° C., 1 h, listed as Form 1) is reported as 9.4 μm, the “D 90” value ([1]; 5° C., 2 h, listed as Form 1) is reported as 9.0 μm and the “D 90” value ([1]; 5° C., 4 h, listed as Form 1) is reported as 5.2 μm. The “D 90” value ([1]; 5° C., 24 h, listed as Form 1) was 5.6 μm, the “D 90” value ([1]; 60° C., 1 h, listed as Form 1) was 22.6 μm and the “D 90” value ([1]; 60° C., 2 h, listed as Form 1) was 6.6 μm. For the same compound, the “D 90” value ([1]; 60° C., 4 h, listed as Form 1) was 5.3 μm, the “D 90” value ([1]; 60° C., 24 h, listed as Form 1) was 2.0 μm and the “D 90” value ([1]; RT, 1 h, listed as Form 1) was 22.4 μm. For the same compound, the “D 90” value ([1]; RT, 2 h, listed as Form 1) was 21.4 μm, the “D 90” value ([1]; RT, 4 h, listed as Form 1) was 14.2 μm and the “D 90” value ([1]; RT, 24 h, listed as Form 1) was 2.8 μm. The Form ([2]; 5° C., 1 h, listed as Form 1) was “Form I”, the Form ([2]; 5° C., 2 h, listed as Form 1) was “Form I” and the Form ([2]; 5° C., 4 h, listed as Form 1) was “Form I”. The Form ([2]; 5° C., 24 h, listed as Form 1) was “Form I”, the Form ([2]; 60° C., 1 h, listed as Form 1) was “Form I” and the Form ([2]; 60° C., 2 h, listed as Form 1) was “Form I”. For the same compound, the Form ([2]; 60° C., 4 h) was “Form I”, the Form ([2]; 60° C., 24 h) was “Form I” and the Form ([2]; RT, 1 h, listed as Form 1) was “Form I”. For the same compound, the Form ([2]; RT, 2 h, listed as Form 1) was “Form I”, the Form ([2]; RT, 4 h, listed as Form 1) was “Form I” and the Form ([2]; RT, 24 h, listed as Form 1) was “Form I”. For the same compound, the “Form obtained from slurry competition” value ([3]; IV and V slurried in ACN/H2O (1:1, v/v) at RT) was “New form”, the “Form obtained from slurry competition” value ([3]; IV and V slurried in ACN/H2O (1:3, v/v) at RT) was “Form I” and the “Form obtained from slurry competition” value ([3]; IV and V slurried in H2O at RT, XRPD after one day and six days) was “Form IV”. The “Form conversion during storage” value [4] was “started converting to Form IV” and the “Particle size growth during storage” value [4] was “unacceptable particle size growth”.
With `CC1CC(C)CN(S(=O)(=O)c2ccc3c(c2)C(=NO)c2cc(S(=O)(=O)N4CC(C)CC(C)C4)ccc2C3=NO)C1` (stereo not shown) [Form III, (9E,10E)-2,7-bis((3,5-dimethylpiperidin-1-yl)sulfonyl)anthracene-9,10-dione dioxime] the Form conversion ([5]; after exposure to ambient condition at RT) was “Form V” and the Form conversion ([5]; after vacuum drying at RT) was “converted to Form IV”.
For `CC1CC(C)CN(S(=O)(=O)c2ccc3c(c2)C(=NO)c2cc(S(=O)(=O)N4CC(C)CC(C)C4)ccc2C3=NO)C1` (stereo not shown) [Form IV, (9E,10E)-2,7-bis((3,5-dimethylpiperidin-1-yl)sulfonyl)anthracene-9,10-dione dioxime], the “Form by VT-XRPD” value ([6]; after cooling to 30° C.) was “Form VI was still observed”, the “Form by VT-XRPD” value ([6]; after heating to 75 and 120° C.) was “pure Form VI” and the “Form by VT-XRPD” value ([6]; at 30° C. under N2) was “partially converted to a new form”. The “D 90” value ([1]; 5° C., 1 h) was 33.7 μm, the “D 90” value ([1]; 5° C., 2 h) was 17.4 μm and the “D 90” value ([1]; 5° C., 4 h) was 5.8 μm. For the same compound, the “D 90” value ([1]; 5° C., 24 h) was 9.8 μm, the “D 90” value ([1]; 60° C., 1 h) was 3.9 μm and the “D 90” value ([1]; 60° C., 2 h) was 4.0 μm. The “D 90” value ([1]; 60° C., 4 h) was 2.0 μm, the “D 90” value ([1]; 60° C., 24 h) was 0.6 μm and the “D 90” value ([1]; RT, 1 h) was 6.6 μm. For the same compound, the “D 90” value ([1]; RT, 2 h) was 4.0 μm, the “D 90” value ([1]; RT, 4 h) was 3.4 μm and the “D 90” value ([1]; RT, 24 h) was 5.8 μm. The Form ([2]; 5° C., 1 h) was “Form IV”, the Form ([2]; 5° C., 2 h) was “Form IV” and the Form ([2]; 5° C., 4 h) was “Form IV”. The Form ([2]; 5° C., 24 h) was “Form IV”, the Form ([2]; 60° C., 1 h) was “Form IV” and the Form ([2]; 60° C., 2 h) was “form conversion was observed; also recorded: Form I + IV”. The Form ([2]; RT, 1 h) was “Form IV”, the Form ([2]; RT, 2 h) was “Form IV” and the Form ([2]; RT, 4 h) was “Form IV”. The Form ([2]; RT, 24 h) was “form conversion was observed; also recorded: Amorphous”, the “Form conversion on ball milling” value ([2]; milled at elevated temperature (60° C.), time not stated) was “conversion to Form I; also recorded: converted to Form I” and the water uptake [7] was 9.1%. The Aggregation ([8]; 5° C.) was “Aggregation was observed” and the Aggregation ([8]; RT) was “Aggregation was observed”.
For `CC1CC(C)CN(S(=O)(=O)c2ccc3c(c2)C(=NO)c2cc(S(=O)(=O)N4CC(C)CC(C)C4)ccc2C3=NO)C1` (stereo not shown) [Form VI, (9E,10E)-2,7-bis((3,5-dimethylpiperidin-1-yl)sulfonyl)anthracene-9,10-dione dioxime], the Form conversion ([6]; after exposure to ambient condition) was “converted to Form IV quickly”.
